Assay results published in patent US20260078120A1, “SUBSTITUTED PYRIDOPYRIMIDINONES” (MIRATI THERAPEUTICS, INC., priority 2022, published 2026).
pIC50: −log10 of the molar value.

How the values were obtained:
[1] = tested on: SKBR3 (PI3Kα wild type) cells; experiment: CellTiter-Glo 2.0 luminescent cell viability assay, 72 hours, SKBR3 cells; type: cell-based; settings: Homo sapiens, SK-BR-3, 72 h, SKBR3 (PI3Kα wild type) cells, CellTiter-Glo, approximately 72 hours; read-out: SKBR3 (WT) Viability IC50
Outline: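 Viability measured via CTG luminescence following roughly 72 hours of compound exposure at 37° C. Dosing used a 10 um starting concentration diluted 1:4 over 10 points; percent-of-vehicle data fitted with a variable-slope four-parameter model for IC50.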

[2] = tested on: T47D (PI3Kα H1047R mutant) cells; experiment: CellTiter-Glo 2.0 luminescent cell viability assay, 72 hours, T47D cells; type: cell-based; settings: Homo sapiens, T47D, 72 h, T47D (PI3Kα H1047R mutant) cells, CellTiter-Glo, approximately 72 hours; read-out: T47D (H1047R mutant) Viability IC50
Outline: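 Cells seeded at 1000 per well overnight were dosed with a 10-concentration, 1:4 series starting at 10 µM and incubated ~72 h at 37° C. Viability was read by CellTiter-Glo 2.0 luminescence after 30 min at room temperature. IC50 came from four-parameter fits of percent vehicle control.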

Compound | pIC50 [1] | pIC50 [2]
CO[C@H]1CN(c2nc3c([C@@H](C)Nc4ccccc4C(=O)O)cc(C)cn3c(=O)c2C)CC1(F)F [Example 11-118, 2-(((R)-1-(2-((S)-3,3-difluoro-4-methoxypyrrolidin-1-yl)-3,7-dimethyl-4-oxo-4H-pyrido[1,2-a]pyrimidin-9-yl)ethyl)amino)benzoic acid] | < 5.00 | 6.63
Cc1cc([C@@H](C)Nc2ccccc2C(=O)O)c2nc(Cl)c(C)c(=O)n2c1 [Example 11-242, (R)-2-((1-(2-chloro-3,7-dimethyl-4-oxo-4H-pyrido[1,2-a]pyrimidin-9-yl)ethyl)amino)benzoic acid] | < 5.00 | < 5.00
Cc1cc([C@@H](C)Nc2ccccc2C(=O)O)c2nc(N3CC4CC(C4)C3)c(C#N)c(=O)n2c1 [Example 11-227, (R)-2-((1-(2-(3-azabicyclo[3.1.1]heptan-3-yl)-3-cyano-7-methyl-4-oxo-4H-pyrido[1,2-a]pyrimidin-9-yl)ethyl)amino)benzoic acid] | < 5.00 | 6.91
C[C@@H](Nc1ccccc1C(=O)O)c1cc(C2CC2)cn2c(=O)c(C#N)c(N3CCC(F)(F)CC3)nc12 [Example 10-83, (R)-2-((1-(3-cyano-7-cyclopropyl-2-(4,4-difluoropiperidin-1-yl)-4-oxo-4H-pyrido[1,2-a]pyrimidin-9-yl)ethyl)amino)benzoic acid] | < 5.00 | 7.10
Cc1cc([C@@H](C)Nc2ccc(C#N)cc2C(=O)O)c2nc(N3Cc4ccccc4C3)c(C)c(=O)n2c1 [Example 11-310, (R)-5-cyano-2-((1-(2-(isoindolin-2-yl)-3,7-dimethyl-4-oxo-4H-pyrido[1,2-a]pyrimidin-9-yl)ethyl)amino)benzoic acid] | < 5.00 | 6.20
Cc1cc([C@@H](C)Nc2ccccc2C(=O)O)c2nc(N[C@H](C)C3CC3)c(C#N)c(=O)n2c1 [Example 11-165, 2-(((R)-1-(3-cyano-2-(((R)-1-cyclopropylethyl)amino)-7-methyl-4-oxo-4H-pyrido[1,2-a]pyrimidin-9-yl)ethyl)amino)benzoic acid] | < 5.00 | 6.31
Cc1cc([C@@H](C)Nc2ccccc2C(=O)O)c2nc(-c3cn(-c4ccc(C#N)cc4)cn3)c(C)c(=O)n2c1 [Example 11-236, (R)-2-((1-(2-(1-(4-cyanophenyl)-1H-imidazol-4-yl)-3,7-dimethyl-4-oxo-4H-pyrido[1,2-a]pyrimidin-9-yl)ethyl)amino)benzoic acid] | < 5.00 | 6.17
Cc1cc([C@@H](C)Nc2ccccc2C(=O)O)c2nc(N3CCC(O)CC3)c(C#N)c(=O)n2c1 [Example 11-312, (R)-2-((1-(3-cyano-2-(4-hydroxypiperidin-1-yl)-7-methyl-4-oxo-4H-pyrido[1,2-a]pyrimidin-9-yl)ethyl)amino)benzoic acid] | < 5.00 | 5.29
Cc1cc([C@@H](C)Nc2ccccc2C(=O)O)c2nc(N3CCC(F)(F)[C@H](C)C3)c(C#N)c(=O)n2c1 [Example 11-64, 2-(((R)-1-(3-cyano-2-((R)-4,4-difluoro-3-methylpiperidin-1-yl)-7-methyl-4-oxo-4H-pyrido[1,2-a]pyrimidin-9-yl)ethyl)amino)benzoic acid] | < 5.00 | 6.88
Cc1cc(C(C)Nc2ccccc2C(=O)O)c2nc(Nc3cccc(C#N)c3)cc(=O)n2c1 (stereo not shown) [Example 11-339, 2-((1-(2-((3-cyanophenyl)amino)-7-methyl-4-oxo-4H-pyrido[1,2-a]pyrimidin-9-yl)ethyl)amino)benzoic acid] | < 5.00 | < 5.00
Cc1cc([C@@H](C)Nc2ccccc2C(=O)O)c2nc(N3CCC4(CC3)CC4(F)F)c(C#N)c(=O)n2c1 [Example 11-218, (R)-2-((1-(3-cyano-2-(1,1-difluoro-6-azaspiro[2.5]octan-6-yl)-7-methyl-4-oxo-4H-pyrido[1,2-a]pyrimidin-9-yl)ethyl)amino)benzoic acid] | < 5.00 | 6.75
Cc1cc(C(C)Nc2ccccc2C(=O)O)c2nc(-c3ccccc3C#N)cc(=O)n2c1 (stereo not shown) [Example 11-399, 2-((1-(2-(2-cyanophenyl)-7-methyl-4-oxo-4H-pyrido[1,2-a]pyrimidin-9-yl)ethyl)amino)benzoic acid] | < 5.00 | < 5.00
Cc1cc([C@@H](C)Nc2ccccc2C(=O)O)c2nc(N3CCN(c4ccc(C(F)(F)F)cc4C#N)C[C@H]3C)c(C#N)c(=O)n2c1 [Example 11-76, 2-(((R)-1-(3-cyano-2-((R)-4-(2-cyano-4-(trifluoromethyl)phenyl)-2-methylpiperazin-1-yl)-7-methyl-4-oxo-4H-pyrido[1,2-a]pyrimidin-9-yl)ethyl)amino)benzoic acid] | < 5.00 | 6.47
CCN(CC)c1nc2c([C@@H](C)Nc3ccccc3C(=O)O)cc(C)cn2c(=O)c1C#N [Example 11-320, (R)-2-((1-(3-cyano-2-(diethylamino)-7-methyl-4-oxo-4H-pyrido[1,2-a]pyrimidin-9-yl)ethyl)amino)benzoic acid] | < 5.00 | 6.27
Cc1cc(C(=O)N2CCCCC2C(=O)O)c2nc(N3CCCCC3)cc(=O)n2c1 (stereo not shown) [Example 11-346, 1-(7-methyl-4-oxo-2-(piperidin-1-yl)-4H-pyrido[1,2-a]pyrimidine-9-carbonyl)piperidine-2-carboxylic acid] | < 5.00 | < 5.00
Cc1cc([C@@H](C)Nc2ccccc2C(=O)O)c2nc(N3CCC[C@H](C(F)(F)F)C3)c(C)c(=O)n2c1 [Example 11-212, 2-(((R)-1-(3,7-dimethyl-4-oxo-2-((S)-3-(trifluoromethyl)piperidin-1-yl)-4H-pyrido[1,2-a]pyrimidin-9-yl)ethyl)amino)benzoic acid] | < 5.00 | 5.87
CC(=O)N1CCC(c2nc3c([C@@H](C)Nc4ccccc4C(=O)O)cc(C)cn3c(=O)c2C#N)CC1 [Example 11-256, (R)-2-((1-(2-(1-acetylpiperidin-4-yl)-3-cyano-7-methyl-4-oxo-4H-pyrido[1,2-a]pyrimidin-9-yl)ethyl)amino)benzoic acid] | < 5.00 | 6.29

Next, values leading:

pIC50 [1] | pIC50 [2] | Compound
< 5.00 | 6.63 | Cc1cc([C@@H](C)Nc2ccccc2C(=O)O)c2nc(N3CCN(c4ccccc4C)CC3)c(C)c(=O)n2c1 [Example 11-267, (R)-2-((1-(3,7-dimethyl-4-oxo-2-(4-(o-tolyl)piperazin-1-yl)-4H-pyrido[1,2-a]pyrimidin-9-yl)ethyl)amino)benzoic acid]
5.08 | 6.86 | Cc1cc([C@@H](C)Nc2ccccc2C(=O)O)c2nc(N3CCN(c4ccc(C(F)(F)F)cn4)CC3)c(C)c(=O)n2c1 [Example 11-434, (R)-2-((1-(3,7-dimethyl-4-oxo-2-(4-(5-(trifluoromethyl)pyridin-2-yl)piperazin-1-yl)-4H-pyrido[1,2-a]pyrimidin-9-yl)ethyl)amino)benzoic acid]
< 5.00 | 7.82 | Cc1cc([C@@H](C)Nc2ccccc2C(=O)O)c2nc(N3CCN(C(=O)CC4CC4)CC3)c(C)c(=O)n2c1 [Example 10-6, (R)-2-((1-(2-(4-(2-cyclopropylacetyl)piperazin-1-yl)-3,7-dimethyl-4-oxo-4H-pyrido[1,2-a]pyrimidin-9-yl)ethyl)amino)benzoic acid]
< 5.00 | 7.33 | CNS(=O)(=O)c1ccc(N2CCN(c3nc4c([C@@H](C)Nc5ccccc5C(=O)O)cc(C)cn4c(=O)c3C)CC2)cc1 [Example 10-129, (R)-2-((1-(3,7-dimethyl-2-(4-(4-(N-methylsulfamoyl)phenyl)piperazin-1-yl)-4-oxo-4H-pyrido[1,2-a]pyrimidin-9-yl)ethyl)amino)benzoic acid]
< 5.00 | 6.73 | Cc1cc([C@@H](C)Nc2ccccc2C(=O)O)c2nc(N3CC[C@H]3CF)c(C)c(=O)n2c1 [Example 11-94, 2-(((R)-1-(2-((S)-2-(fluoromethyl)azetidin-1-yl)-3,7-dimethyl-4-oxo-4H-pyrido[1,2-a]pyrimidin-9-yl)ethyl)amino)benzoic acid]
< 5.00 | 6.80 | Cc1cc([C@@H](C)Nc2ccccc2C(=O)O)c2nc(N3CCN(c4ccccc4C#N)C[C@H]3C)c(C)c(=O)n2c1 [Example 11-83, 2-(((R)-1-(2-((R)-4-(2-cyanophenyl)-2-methylpiperazin-1-yl)-3,7-dimethyl-4-oxo-4H-pyrido[1,2-a]pyrimidin-9-yl)ethyl)amino)benzoic acid]
< 5.00 | 6.30 | Cc1cc([C@@H](C)Nc2ccccc2C(=O)O)c2nc(N3CCN(C)CC3)c(C#N)c(=O)n2c1 [Example 11-295, (R)-2-((1-(3-cyano-7-methyl-2-(4-methylpiperazin-1-yl)-4-oxo-4H-pyrido[1,2-a]pyrimidin-9-yl)ethyl)amino)benzoic acid]
< 5.00 | 5.50 | Cc1cc([C@@H](C)Nc2ccccc2C(=O)O)c2nc(N3CCn4ccnc4C3)c(C)c(=O)n2c1 [Example 11-429, (R)-2-((1-(2-(5,6-dihydroimidazo[1,2-a]pyrazin-7(8H)-yl)-3,7-dimethyl-4-oxo-4H-pyrido[1,2-a]pyrimidin-9-yl)ethyl)amino)benzoic acid]
5.13 | 5.51 | Cc1cc([C@@H](C)Nc2ccccc2C(=O)O)c2nc(N3CCN(c4ccccc4)CC3)c(C)c(=O)n2c1 [Example 11-273, (R)-2-((1-(3,7-dimethyl-4-oxo-2-(4-phenylpiperazin-1-yl)-4H-pyrido[1,2-a]pyrimidin-9-yl)ethyl)amino)benzoic acid]
